Source: patent US8716303B2, “N-(hetero)aryl-pyrrolidine derivatives of pyrazol-4-yl-pyrrolo[2,3-d]pyrimidines and pyrrol-3-yl-pyrrolo[2,3-d]pyrimidines as janus kinase inhibitors” (Incyte Corporation, priority 2009, dated 2014)
Structures can show the parent of a compound that is named as a salt.

Experiments:
[1] = target: T1, human JAK1 (a.a. 837-1142) (Homo sapiens, UniProt P23458); test: In vitro JAK kinase assay (HTRF, phosphorylation of a biotinylated peptide), JAK1; assay type: biochemical
T1 construct: human JAK1 (a.a. 837-1142); His tag (N); made in house; host or cells: insect cells (baculovirus)
T1 sequence (P23458 849-1154): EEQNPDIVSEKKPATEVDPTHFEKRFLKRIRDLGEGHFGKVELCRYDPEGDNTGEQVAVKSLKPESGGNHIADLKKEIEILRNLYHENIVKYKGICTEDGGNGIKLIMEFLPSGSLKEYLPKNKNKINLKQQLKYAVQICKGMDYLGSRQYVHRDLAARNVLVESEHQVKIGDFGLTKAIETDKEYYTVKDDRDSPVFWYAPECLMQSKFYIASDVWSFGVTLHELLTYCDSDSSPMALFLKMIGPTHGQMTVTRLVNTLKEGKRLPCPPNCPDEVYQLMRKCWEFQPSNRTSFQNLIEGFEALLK
How it was run: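 His-tagged catalytic domains (JAK1 a.a. 837-1142, JAK2 a.a. 828-1132) from insect cells phosphorylate 500 nM biotinylated peptide in 50 mM Tris pH 7.8, 100 mM NaCl, 5 mM DTT; ATP at Km (90 μM JAK1, 30 μM JAK2) or 1 mM, as indicated. 1 h at RT; EDTA stop, HTRF readout; IC50s.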

Jak2 (a.a. 828-1132) = target: T2, Jak2 (a.a. 828-1132) (Homo sapiens, UniProt O60674); test: In vitro JAK kinase assay (HTRF, phosphorylation of a biotinylated peptide), JAK2, reported as JAK2/JAK1 ratio; assay type: biochemical
T2 construct: Jak2 (a.a. 828-1132); His tag (N); made in house; host or cells: insect cells (baculovirus)
T2 sequence (O60674 828-1132): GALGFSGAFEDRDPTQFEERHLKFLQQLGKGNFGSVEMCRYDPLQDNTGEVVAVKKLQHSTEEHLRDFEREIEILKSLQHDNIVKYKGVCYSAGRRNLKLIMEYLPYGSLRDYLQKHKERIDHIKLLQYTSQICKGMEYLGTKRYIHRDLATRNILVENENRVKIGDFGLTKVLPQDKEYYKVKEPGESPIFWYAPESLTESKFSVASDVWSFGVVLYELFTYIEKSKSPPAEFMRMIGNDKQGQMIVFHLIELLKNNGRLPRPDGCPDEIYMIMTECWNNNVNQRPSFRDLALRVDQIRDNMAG

[2] = Assay Conditions Km (ATP 90 μM for Jak1)
[3] = Assay Conditions Km (ATP 90 μM for Jak1, 30 μM for Jak2)

SMILES	IC50 ([1]; Assay Conditions 1 mM ATP) [nM]	JAK2/JAK1 IC50 ratio (Jak2 (a.a. 828-1132); Assay Conditions 1 mM ATP)	IC50 [1, 2] [nM]	JAK2/JAK1 IC50 ratio (Jak2 (a.a. 828-1132); [3])
N#Cc1c(N2CC[C@H](C(CF)n3cc(-c4ncnc5[nH]ccc45)cn3)C2)ncc2c1S(=O)(=O)CC2 (single isomer, unassigned) [Example 178]	< 50	31.8	–	–
FCC([C@H]1CCN(c2nc3cccnc3o2)C1)n1cc(-c2ncnc3[nH]ccc23)cn1 (stereo partly drawn) [70 (3S- enantiomer), 2-((3S)-3-{2-fluoro-1-[4-(7H-pyrrolo[2,3-d]pyrimidin-4-yl)-1H-pyrazol-1-yl]ethyl}pyrrolidin-1-yl)[1,3]oxazolo[5,4-b]pyridine phosphoric acid salt]	< 50	15	–	–
FCC([C@@H]1CCN(c2nc3cccnc3o2)C1)n1cc(-c2ncnc3[nH]ccc23)cn1 (stereo partly drawn) [71 (3R- enantiomer), 2-((3R)-3-{2-fluoro-1-[4-(7H-pyrrolo[2,3-d]pyrimidin-4-yl)-1H-pyrazol-1-yl]ethyl}pyrrolidin-1-yl) [1,3]oxazolo[5,4-b]pyridine phosphoric acid salt]	< 50	5.9	–	–
N#CCC(C1CCN(c2nc(Br)cs2)C1)n1cc(-c2ncnc3[nH]ccc23)cn1 (centres unmarked) [Example 5, 3-[1-(4-bromo-1,3-thiazol-2-yl)pyrrolidin-3-yl]-3-[4-(7H-pyrrolo[2,3-d]pyrimidin-4-yl)-1H-pyrazol-1-yl]propanenitrile trifluoroacetate]	–	–	< 50	2.2
N#CCC(C1CCN(c2ccc3c(n2)[S+]([O-])CC3)C1)n1ccc(-c2ncnc3[nH]ccc23)c1 (centres unmarked) [Example 35, 3-[1-(1-oxido-2,3-dihydrothieno[2,3-b]pyridin-6-yl)pyrrolidin-3-yl]-3-[3-(7H-pyrrolo[2,3-d]pyrimidin-4-yl)-1H-pyrrol-1-yl]propanenitrile]	< 50	4.2	–	–
N#CC[C@@H]([C@H]1CCN(c2ncc(Br)s2)C1)n1cc(-c2ncnc3[nH]ccc23)cn1 [Example 47, (3S)-3-[(3S)-1-(5-bromo-1,3-thiazol-2-yl)pyrrolidin-3-yl]-3-[4-(7H-pyrrolo[2,3-d]pyrimidin-4-yl)-1H-pyrazol-1-yl]propanenitrile trifluoroacetate]	< 50	6.9	–	–
N#CC[C@@H]([C@H]1CCN(c2nccc(C(F)(F)F)c2C#N)C1)n1cc(-c2ncnc3[nH]ccc23)cn1 [Example 50, 2-((3S)-3-{(1S)-2-cyano-1-[4-(7H-pyrrolo[2,3-d]pyrimidin-4-yl)-1H-pyrazol-1-yl]ethyl}pyrrolidin-1-yl)-4-(trifluoromethyl)nicotinonitrile trifluoroacetate]	< 50	15.4	–	–
N#CC[C@@H]([C@H]1CCN(c2nccnc2C#N)C1)n1cc(-c2ncnc3[nH]ccc23)cn1 [Example 51, 3-((3S)-3-{(1S)-2-cyano-1-[4-(7H-pyrrolo[2,3-d]pyrimidin-4-yl)-1H-pyrazol-1-yl]ethyl}pyrrolidin-1-yl)pyrazine-2-carbonitrile trifluoroacetate]	< 50	6.8	–	–
N#CCC(C1CCN(c2ccccc2C#N)C1)n1cc(-c2ncnc3[nH]ccc23)cn1 (centres unmarked) [Example 52, 2-(3-{2-cyano-1-[4-(7H-pyrrolo[2,3-d]pyrimidin-4-yl)-1H-pyrazol-1-yl]ethyl}pyrrolidin-1-yl)benzonitrile trifluoroacetate salt]	< 50	2	–	–
COc1cccc(N2CC[C@H]([C@H](CC#N)n3cc(-c4ncnc5[nH]ccc45)cn3)C2)c1C#N [Example 55, 2-((3S)-3-{(1S)-2-cyano-1-[4-(7H-pyrrolo[2,3-d]pyrimidin-4-yl)-1H-pyrazol-1-yl]ethyl}pyrrolidin-1-yl)-6-methoxybenzonitrile trifluoroacetate salt]	< 50	>8	–	–
N#CC[C@@H]([C@H]1CCN(c2cccc(C(F)(F)F)c2C#N)C1)n1cc(-c2ncnc3[nH]ccc23)cn1 [Example 56, 2-((3S)-3-{(1S)-2-cyano-1-[4-(7H-pyrrolo[2,3-d]pyrimidin-4-yl)-1H-pyrazol-1-yl]ethyl}pyrrolidin-1-yl)-6-(trifluoromethyl)benzonitrile trifluoroacetate salt]	< 50	>10	–	–
N#CC[C@@H]([C@H]1CCN(c2c(C#N)cccc2C#N)C1)n1cc(-c2ncnc3[nH]ccc23)cn1 [Example 59, 2-((3S)-3-{(1S)-2-cyano-1-[4-(7H-pyrrolo[2,3-d]pyrimidin-4-yl)-1H-pyrazol-1-yl]ethyl}pyrrolidin-1-yl)isophthalonitrile trifluoroacetate salt]	< 50	6.5	–	–
N#CC[C@@H]([C@H]1CCN(c2ccc(F)c(F)c2C#N)C1)n1cc(-c2ncnc3[nH]ccc23)cn1 [Example 60, 6-((3S)-3-{(1S)-2-cyano-1-[4-(7H-pyrrolo[2,3-d]pyrimidin-4-yl)-1H-pyrazol-1-yl]ethyl}pyrrolidin-1-yl)-2,3-difluorobenzonitrile trifluoroacetate salt]	< 50	6.6	–	–

Second part, the compound after the results:

IC50 ([1]; Assay Conditions 1 mM ATP) [nM]	JAK2/JAK1 IC50 ratio (Jak2 (a.a. 828-1132); Assay Conditions 1 mM ATP)	IC50 [1, 2] [nM]	JAK2/JAK1 IC50 ratio (Jak2 (a.a. 828-1132); [3])	SMILES
< 50	>5.4	–	–	N#CCC(C1CCN(c2ncc3cc[nH]c3c2C#N)C1)n1cc(-c2ncnc3[nH]ccc23)cn1 (single isomer, unassigned) [Example 177, 6-(3-{2-cyano-1-[4-(7H-pyrrolo[2,3-d]pyrimidin-4-yl)-1H-pyrazol-1-yl]ethyl}pyrrolidin-1-yl)-1H-pyrrolo[3,2-c]pyridine-7-carbonitrile]
–	–	< 50	>5	CN(C)c1ccnc(N2CCC(C(CC#N)n3cc(-c4ncnc5[nH]ccc45)cn3)C2)n1 (centres unmarked) [Example 6, 3-{1-[4-(dimethylamino)pyrimidin-2-yl]pyrrolidin-3-yl}-3-[4-(7H-pyrrolo[2,3-d]pyrimidin-4-yl)-1H-pyrazol-1-yl]propanenitrile]
–	–	< 50	4.7	CC(C)Nc1ccnc(N2CCC(C(CC#N)n3cc(-c4ncnc5[nH]ccc45)cn3)C2)n1 (centres unmarked) [Example 7, 3-{1-[4-(isopropylamino)pyrimidin-2-yl]pyrrolidin-3-yl}-3-[4-(7H-pyrrolo[2,3-d]pyrimidin-4-yl)-1H-pyrazol-1-yl]propanenitrile]
–	–	< 50	2.5	N#CCC(C1CCN(c2nc3ccccc3nc2O)C1)n1cc(-c2ncnc3[nH]ccc23)cn1 (centres unmarked) [Example 43, 3-[1-(3-hydroxyquinoxalin-2-yl)pyrrolidin-3-yl]-3-[4-(7H-pyrrolo[2,3-d]pyrimidin-4-yl)-1H-pyrazol-1-yl]propanenitrile trifluoroacetate salt]
–	–	< 50	3	N#CCC(C1CCN(c2ncc3cccc(Cl)c3n2)C1)n1cc(-c2ncnc3[nH]ccc23)cn1 (centres unmarked) [Example 44, 3-[1-(8-chloroquinazolin-2-yl)pyrrolidin-3-yl]-3-[4-(7H-pyrrolo[2,3-d]pyrimidin-4-yl)-1H-pyrazol-1-yl]propanenitrile trifluoroacetate salt]
< 50	3.7	–	–	N#CCC(C1CCN(c2ncc3cccc(F)c3n2)C1)n1cc(-c2ncnc3[nH]ccc23)cn1 (centres unmarked) [Example 46, 3-[1-(8-fluoroquinazolin-2-yl)pyrrolidin-3-yl]-3-[4-(7H-pyrrolo[2,3-d]pyrimidin-4-yl)-1H-pyrazol-1-yl]propanenitrile]
< 50	>30	–	–	N#CC[C@@H]([C@H]1CCN(c2cccc(Cl)c2C#N)C1)n1cc(-c2ncnc3[nH]ccc23)cn1 [Example 48, 2-chloro-6-((3S)-3-{(1S)-2-cyano-1-[4-(7H-pyrrolo[2,3-d]pyrimidin-4-yl)-1H-pyrazol-1-yl]ethyl}pyrrolidin-1-yl)benzonitrile trifluoroacetate]
< 50	10.2	–	–	N#CC[C@@H]([C@H]1CCN(c2cccc(C#N)c2C#N)C1)n1cc(-c2ncnc3[nH]ccc23)cn1 [Example 49, 3-((3S)-3-{(1S)-2-cyano-1-[4-(7H-pyrrolo[2,3-d]pyrimidin-4-yl)-1H-pyrazol-1-yl]ethyl}pyrrolidin-1-yl)phthalonitrile trifluoroacetate]
< 50	>7.7	–	–	Cc1cccc(N2CC[C@H]([C@H](CC#N)n3cc(-c4ncnc5[nH]ccc45)cn3)C2)c1C#N [Example 53, 2-((3S)-3-{(1S)-2-cyano-1-[4-(7H-pyrrolo[2,3-d]pyrimidin-4-yl)-1H-pyrazol-1-yl]ethyl}pyrrolidin-1-yl)-6-methylbenzonitrile trifluoroacetate salt]
< 50	4.6	–	–	N#CC[C@@H]([C@H]1CCN(c2cccc(F)c2C#N)C1)n1cc(-c2ncnc3[nH]ccc23)cn1 [Example 54, 2-((3S)-3-{(1S)-2-cyano-1-[4-(7H-pyrrolo[2,3-d]pyrimidin-4-yl)-1H pyrazol-1-yl]ethyl}pyrrolidin-1-yl) 6-fluorobenzonitrile trifluoroacetate salt]
< 50	37	–	–	N#CC[C@@H]([C@H]1CCN(c2cccc(Br)c2C#N)C1)n1cc(-c2ncnc3[nH]ccc23)cn1 [Example 57, 2-bromo-6-((3S)-3-{(1S)-2-cyano-1-[4-(7H-pyrrolo[2,3-d]pyrimidin-4-yl)-1H-pyrazol-1-yl]ethyl}pyrrolidin-1-yl)benzonitrile trifluoroacetate salt]
< 50	8	–	–	N#CC[C@@H]([C@H]1CCN(c2c(F)cccc2C#N)C1)n1cc(-c2ncnc3[nH]ccc23)cn1 [Example 58, 2-((3S)-3-{(1S)-2-cyano-1-[4-(7H-pyrrolo[2,3-d]pyrimidin-4-yl)-1H-pyrazol-1-yl]ethyl}pyrrolidin-l-yl)-3-fluorobenzonitrile trifluoroacetate salt]
